Where two headings read alike, the source gives them in different places.
Test system: RS4; 11 with G101V mutation
Assay: In vitro anti-proliferation assay (ATPlite luminescence) in BCL-2-dependent ALL cell line RS4;11 with G101V mutation
Format: cell-based
Details: read-out: RS411-G101V IC50
Method in brief: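 IC50 came from luminescent ATP quantification (ATPlite) following cell lysis. Compound dose ranges were applied for roughly 72 h to about 1×10^4 G101V-mutant RS4;11 cells per well, in 10% FBS medium.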

[1] = cellular anti-proliferative IC50, about 72 hours, medium with 10% FBS, ATPlite

IC50 (Homo sapiens, RS4-11, 72 h) [µM]	Compound	IC50 [1] [µM]
–	CC(C)Oc1ccccc1[C@@H]1CN(Cc2ccc(F)c(F)c2)CCN1C1CC2(CCN(c3ccc(C(=O)NS(=O)(=O)c4cc5c(c([N+](=O)[O-])c4)N[C@H](C4CCOCC4)CO5)c(N4c5cc6cc[nH]c6nc5O[C@@H]5CCOC[C@H]54)c3)CC2)C1 [Example 241, 4-{2-[(2R)-4-[(3,4-difluorophenyl)methyl]-2-(2-isopropoxyphenyl)piperazin-1-yl]-7-azaspiro[3.5]nonan-7-yl}-2-[(3R,8R)-5,9-dioxa-2,11,13-triazatetracyclo[8.7.0.0^{3,8}.0^{12,16}]heptadeca-1(10),11,14,16-tetraen-2-yl]-N-[(3R)-5-nitro-3-(oxan-4-yl)-3,4-dihydro-2H-1,4-benzoxazin-7-ylsulfonyl]benzamide]	0.00445
–	CC(C)Oc1ccccc1[C@@H]1CN([C@H](C)c2ccc(F)c(F)c2)CCN1C1CC2(CCN(c3ccc(C(=O)NS(=O)(=O)c4cc5c(c([N+](=O)[O-])c4)N[C@H](C4CCOCC4)CO5)c(N4c5cc6cc[nH]c6nc5O[C@H]5COCC[C@@H]54)c3)CC2)C1 [Example 242, 4-{2-[(2R)-4-[(1R)-1-(3,4-difluorophenyl)ethyl]-2-(2-isopropoxyphenyl)piperazin-1-yl]-7-azaspiro[3.5]nonan-7-yl}-2-[(3R,8S)-2,5-dioxa-9,15,17-triazatetracyclo[8.7.0.0^{3,8}.0^{12,16}]heptadeca-1(10),11,13,16-tetraen-9-yl]-N-[(3R)-5-nitro-3-(oxan-4-yl)-3,4-dihydro-2H-1,4-benzoxazin-7-ylsulfonyl]benzamide]	0.0978
–	CC(C)Oc1ccccc1[C@@H]1CN([C@@H](C)c2ccc(F)c(F)c2)CCN1C1CC2(CCN(c3ccc(C(=O)NS(=O)(=O)c4cc5c(c([N+](=O)[O-])c4)N[C@H](C4CCOCC4)CO5)c(N4c5cc6cc[nH]c6nc5O[C@H]5COCC[C@@H]54)c3)CC2)C1 [Example 243, 4-{2-[(2R)-4-[(1S)-1-(3,4-difluorophenyl)ethyl]-2-(2-isopropoxyphenyl)piperazin-1-yl]-7-azaspiro[3.5]nonan-7-yl}-2-[(3R,8S)-2,5-dioxa-9,15,17-triazatetracyclo[8.7.0.0^{3,8}.0^{12,16}]heptadeca-1(10),11,13,16-tetraen-9-yl]-N-[(3R)-5-nitro-3-(oxan-4-yl)-3,4-dihydro-2H-1,4-benzoxazin-7-ylsulfonyl]benzamide]	0.0222
0.289	CC(C)Oc1ccccc1[C@@H]1CN(S(=O)(=O)c2ccc(F)c(F)c2)CCN1C1CC2(CCN(c3ccc(C(=O)NS(=O)(=O)c4cc5c(c([N+](=O)[O-])c4)N[C@H](C4CCOCC4)CO5)c(N4c5cc6cc[nH]c6nc5O[C@H]5COCC[C@@H]54)c3)CC2)C1 [Example 245, 4-(2-((R)-4-((3,4-difluorophenyl)sulfonyl)-2-(2-isopropoxyphenyl)piperazin-1-yl)-7-azaspiro[3.5]nonan-7-yl)-N-(((R)-5-nitro-3-(tetrahydro-2H-pyran-4-yl)-3,4-dihydro-2H-benzo[b][1,4]oxazin-7-yl)sulfonyl)-2-((5aS,9aR)-6,7,9,9a-tetrahydro-1H-pyrano[3,4-b]pyrrolo[3′,2′:5,6]pyrido[3,2-e][1,4]oxazin-5(5aH)-yl)benzamide]	–
0.209	CC[C@H](c1ccc(F)c(F)c1)N1CCN(C2CC3(CCN(c4ccc(C(=O)NS(=O)(=O)c5cc6c(c([N+](=O)[O-])c5)N[C@H](C5CCOCC5)CO6)c(N5c6cc7cc[nH]c7nc6O[C@H]6COCC[C@@H]65)c4)CC3)C2)[C@H](c2ccccc2OC(C)C)C1 [Example 246, 4-(2-((R)-4-((R)-1-(3,4-difluorophenyl)propyl)-2-(2-isopropoxyphenyl)piperazin-1-yl)-7-azaspiro[3.5]nonan-7-yl)-N-(((R)-5-nitro-3-(tetrahydro-2H-pyran-4-yl)-3,4-dihydro-2H-benzo[b][1,4]oxazin-7-yl)sulfonyl)-2-((5aS,9aR)-6,7,9,9a-tetrahydro-1H-pyrano[3,4-b]pyrrolo[3′,2′:5,6]pyrido[3,2-e][1,4]oxazin-5(5aH)-yl)benzamide]	–

Reference: patent US20250114374A1, “BCL-2 INHIBITORS” (Newave Pharmaceutical Inc., priority 2021, published 2025)
